Laboratory results reported in ChEMBL document CHEMBL4828738, “Design, synthesis and evaluation of novel 5-phenylthiophene derivatives as potent fungicidal of Candida albicans and antifungal reagents of fluconazole-resistant fungi” (Eur J Med Chem, 2021).
In brackets after ≈: the same amount, converted by molar mass.

Assays:
Nakaseomyces glabratus = experiment: Antifungal activity against Candida glabrata assessed as fungal growth inhibition by CLSI protocol based method; format: functional
Cryptococcus neoformans = experiment: Antifungal activity against Cryptococcus neoformans CGMCC2.3161 assessed as fungal growth inhibition by CLSI protocol based method; format: functional
Candida albicans [1] = experiment: Antifungal activity against Candida albicans CPCC400616 assessed as fungal growth inhibition by CLSI protocol based method; format: functional
Candida parapsilosis = experiment: Antifungal activity against Candida parapsilosis GIM2.190 assessed as fungal growth inhibition by CLSI protocol based method; format: functional; conditions: Lodderomyces parapsilosis
Pichia kudriavzevii = experiment: Antifungal activity against Candida krusei GIM2.1 assessed as fungal growth inhibition by CLSI protocol based method; format: functional
Candida tropicalis = experiment: Antifungal activity against Candida tropicalis CGMCC 2.3739 assessed as fungal growth inhibition by CLSI protocol based method; format: functional
Candida albicans [2] = experiment: Antifungal activity against Candida albicans ATCC SC5314 assessed as fungal growth inhibition by CLSI protocol based method; format: functional
Candida albicans [3] = experiment: Antifungal activity against fluconazole-resistant Candida albicans 100 assessed as fungal growth inhibition by CLSI protocol based method
Candida albicans [4] = experiment: Antifungal activity against fluconazole-resistant Candida albicans 103 assessed as fungal growth inhibition by CLSI protocol based method
Candida albicans [5] = experiment: Antifungal activity against fluconazole-resistant Candida albicans 632 assessed as fungal growth inhibition by CLSI protocol based method
Candida albicans [6] = experiment: Antifungal activity against fluconazole-resistant Candida albicans 311 assessed as fungal growth inhibition by CLSI protocol based method
Candida albicans [7] = experiment: Antifungal activity against fluconazole-resistant Candida albicans 901 assessed as fungal growth inhibition by CLSI protocol based method
Candida albicans [8] = experiment: Antifungal activity against fluconazole-resistant Candida albicans 904 assessed as fungal growth inhibition by CLSI protocol based method

| Structure (SMILES) | MIC (Nakaseomyces glabratus) | MIC (Cryptococcus neoformans) | MIC (Candida albicans [1]) | MIC (Candida parapsilosis) | MIC (Pichia kudriavzevii) | MIC (Candida tropicalis) | MIC (Candida albicans [2]) | MIC (Candida albicans [3]) | MIC (Candida albicans [4]) | MIC (Candida albicans [5]) | MIC (Candida albicans [6]) | MIC (Candida albicans [7]) | MIC (Candida albicans [8]) |
| --- | --- | --- | --- | --- | --- | --- | --- | --- | --- | --- | --- | --- | --- |
| O=C(NC(Cn1ccnc1)C(=O)c1ccccc1)c1cc2ccccc2o1 (stereo not drawn) | > 64 µg/mL | > 64 µg/mL | > 64 µg/mL | > 64 µg/mL | > 64 µg/mL | > 64 µg/mL | > 64 µg/mL | – | – | – | – | – | – |
| O=C(NC(Cn1ccnc1)C(=O)c1ccccc1)c1ccc(-c2ccc(Cl)cc2)s1 (stereo not drawn) | 1 µg/mL (≈ 2.29 µM) | > 64 µg/mL | 0.125 µg/mL (≈ 0.287 µM) | 0.25 µg/mL (≈ 0.573 µM) | 4 µg/mL (≈ 9.18 µM) | 0.125 µg/mL (≈ 0.287 µM) | 0.125 µg/mL (≈ 0.287 µM) | 2 µg/mL (≈ 4.59 µM) | 4 µg/mL (≈ 9.18 µM) | 4 µg/mL (≈ 9.18 µM) | 2 µg/mL (≈ 4.59 µM) | 4 µg/mL (≈ 9.18 µM) | 4 µg/mL (≈ 9.18 µM) |
| COc1ccc(C(=O)C(Cn2ccnc2)NC(=O)c2ccc(-c3ccc(Cl)cc3)s2)cc1 (stereo not drawn) | 4 µg/mL (≈ 8.58 µM) | > 64 µg/mL | 0.125 µg/mL (≈ 0.268 µM) | > 64 µg/mL | 8 µg/mL (≈ 17.2 µM) | 0.06 µg/mL (≈ 0.129 µM) | < 0.03 µg/mL | 4 µg/mL (≈ 8.58 µM) | 8 µg/mL (≈ 17.2 µM) | 8 µg/mL (≈ 17.2 µM) | 4 µg/mL (≈ 8.58 µM) | 8 µg/mL (≈ 17.2 µM) | 16 µg/mL (≈ 34.3 µM) |
| O=C(NC(Cn1ccnc1)C(=O)c1ccccc1)c1ccc(-c2ccccc2)o1 (stereo not drawn) | > 64 µg/mL | > 64 µg/mL | 16 µg/mL (≈ 41.5 µM) | > 64 µg/mL | > 64 µg/mL | > 64 µg/mL | 16 µg/mL (≈ 41.5 µM) | – | – | – | – | – | – |
| O=C(NC(Cn1ccnc1)C(=O)c1ccccc1)c1nc2ccc(Br)cc2s1 (stereo not drawn) | > 64 µg/mL | > 64 µg/mL | > 64 µg/mL | > 64 µg/mL | > 64 µg/mL | > 64 µg/mL | 32 µg/mL (≈ 70.3 µM) | – | – | – | – | – | – |
| Cc1ccc(-c2ccc(C(=O)NC(Cn3ccnc3)C(=O)c3ccccc3)s2)cc1 (stereo not drawn) | > 64 µg/mL | > 64 µg/mL | 1 µg/mL (≈ 2.41 µM) | 8 µg/mL (≈ 19.3 µM) | > 64 µg/mL | 2 µg/mL (≈ 4.81 µM) | 0.125 µg/mL (≈ 0.301 µM) | – | – | – | – | – | – |
| N#Cc1ccc(-c2ccc(C(=O)NC(Cn3ccnc3)C(=O)c3ccccc3)s2)cc1 (stereo not drawn) | > 64 µg/mL | > 64 µg/mL | > 64 µg/mL | > 64 µg/mL | > 64 µg/mL | > 64 µg/mL | > 64 µg/mL | – | – | – | – | – | – |
| O=C(NC(Cn1ccnc1)C(=O)c1ccccc1)c1noc2c1CCc1ccccc1-2 (stereo not drawn) | 16 µg/mL (≈ 38.8 µM) | 16 µg/mL (≈ 38.8 µM) | 8 µg/mL (≈ 19.4 µM) | 32 µg/mL (≈ 77.6 µM) | > 64 µg/mL | 4 µg/mL (≈ 9.7 µM) | 8 µg/mL (≈ 19.4 µM) | – | – | – | – | – | – |
| O=C(NC(Cn1ccnc1)C(=O)c1ccccc1)c1ccc(-c2ccccc2Cl)s1 (stereo not drawn) | > 64 µg/mL | > 64 µg/mL | > 64 µg/mL | > 64 µg/mL | > 64 µg/mL | > 64 µg/mL | > 64 µg/mL | – | – | – | – | – | – |
| O=C(NC(Cn1ccnc1)C(=O)c1ccccc1)c1cnc(-c2ccccc2)o1 (stereo not drawn) | > 64 µg/mL | > 64 µg/mL | 64 µg/mL (≈ 166 µM) | > 64 µg/mL | > 64 µg/mL | > 64 µg/mL | 32 µg/mL (≈ 82.8 µM) | – | – | – | – | – | – |
| O=C(NC(Cn1ccnc1)C(=O)c1ccccc1)c1ccc(-c2ccc(OC(F)(F)F)cc2)s1 (stereo not drawn) | > 64 µg/mL | > 64 µg/mL | 16 µg/mL (≈ 33 µM) | > 64 µg/mL | > 64 µg/mL | 32 µg/mL (≈ 65.9 µM) | 0.5 µg/mL (≈ 1.03 µM) | – | – | – | – | – | – |
| O=C(NC(Cn1ccnc1)C(=O)c1ccccc1)c1ccc(-c2ccc(C(F)(F)F)cc2)s1 (stereo not drawn) | 8 µg/mL (≈ 17 µM) | > 64 µg/mL | 2 µg/mL (≈ 4.26 µM) | 4 µg/mL (≈ 8.52 µM) | 16 µg/mL (≈ 34.1 µM) | 0.125 µg/mL (≈ 0.266 µM) | 0.125 µg/mL (≈ 0.266 µM) | > 64 µg/mL | 2 µg/mL (≈ 4.26 µM) | > 64 µg/mL | 4 µg/mL (≈ 8.52 µM) | 4 µg/mL (≈ 8.52 µM) | 2 µg/mL (≈ 4.26 µM) |
| O=C(NC(Cn1ccnc1)C(=O)c1ccccc1)c1ccc(-c2ccsc2)cc1 (stereo not drawn) | > 64 µg/mL | 8 µg/mL (≈ 19.9 µM) | 2 µg/mL (≈ 4.98 µM) | > 64 µg/mL | 16 µg/mL (≈ 39.9 µM) | 2 µg/mL (≈ 4.98 µM) | 1 µg/mL (≈ 2.49 µM) | – | – | – | – | – | – |
| O=C(NC(Cn1ccnc1)C(=O)c1ccc(OC(F)(F)F)cc1)c1ccc(-c2ccc(Cl)cc2)s1 (stereo not drawn) | > 64 µg/mL | > 64 µg/mL | 32 µg/mL (≈ 61.5 µM) | > 64 µg/mL | > 64 µg/mL | > 64 µg/mL | 32 µg/mL (≈ 61.5 µM) | – | – | – | – | – | – |
| O=C(NC(Cn1ccnc1)C(=O)c1ccccc1)c1ccc2ccccc2c1 (stereo not drawn) | > 64 µg/mL | 32 µg/mL (≈ 86.6 µM) | 2 µg/mL (≈ 5.41 µM) | > 64 µg/mL | > 64 µg/mL | 0.5 µg/mL (≈ 1.35 µM) | 0.5 µg/mL (≈ 1.35 µM) | – | – | – | – | – | – |
